Laboratory results: ChEMBL document CHEMBL4689842, “EUbOPEN Chemogenomics Library wave 1” (2021)

Experiments:
Format in all cases: toxicity, cell-based
[1] = tested on: HEK-293T; test: Incucyte cell viability with HEK293T; details: human, 10 µM, compound concentration 10 uM
[2] = tested on: U2OS; test: Incucyte cell viability with U2OS; details: human, 10 µM, compound concentration 10 uM
[3] = tested on: Fibroblast; test: Incucyte cell viability with human fibroblast; details: 10 µM, compound concentration 10 uM
[4] = 0 h, replicate number 1, timepoint 0 hours
[5] = 0 h, replicate number 2, timepoint 0 hours
[6] = 12 h, replicate number 2, timepoint 12 hours
[7] = 24 h, replicate number 1, timepoint 24 hours
[8] = 6 h, replicate number 1, timepoint 6 hours
[9] = 12 h, replicate number 1, timepoint 12 hours
[10] = 18 h, replicate number 1, timepoint 18 hours
[11] = 6 h, replicate number 2, timepoint 6 hours
[12] = 24 h, replicate number 2, timepoint 24 hours
[13] = 18 h, replicate number 2, timepoint 18 hours

Measured: Growth Rate
Also: filed as whole numbers so only -1 and 0 and 1 occur.

Cn1cnc2c(F)c(Nc3ccc(Br)cc3Cl)c(C(=O)NOCCO)cc21 [SELUMETINIB]
0: [1]; [4] | [2]; [8] | [2]; [9] | [2]; [10] | [2]; [7] | [3]; [4]
1: [1]; [5] | [1]; [6] | [1]; [7] | [2]; [4] | [3]; [7]

Clc1cccc(-c2nnnn2Cc2cccnc2)c1Cl
0: [1]; [5] | [1]; [11] | [1]; [12] | [2]; [11] | [2]; [9] | [2]; [10] | [3]; [4] | [3]; [11] | [3]; [9] | [3]; [10] | [3]; [7]
1: [1]; [4] | [1]; [8] | [1]; [9] | [1]; [10] | [1]; [7] | [2]; [8] | [2]; [6] | [2]; [13] | [2]; [7] | [3]; [8]

C[C@H](Cc1cc2c(c(C(N)=O)c1)N(CCCO)CC2)NCCOc1ccccc1OCC(F)(F)F [SILODOSIN]
0: [1]; [4] | [1]; [8] | [1]; [9] | [1]; [10] | [1]; [7] | [2]; [4] | [2]; [11] | [2]; [6] | [2]; [12] | [3]; [4] | [3]; [8] | [3]; [9] | [3]; [10] | [3]; [12]
1: [2]; [9] | [2]; [10] | [2]; [7] | [3]; [7]

CSc1ccc(C(=O)N[C@@H]2CCCC[C@@H]2NC(=O)CNC(=O)c2cc(C(F)(F)F)ccc2NC(=O)NC(C)C)cc1
0: [1]; [5] | [1]; [8] | [1]; [9] | [1]; [10] | [1]; [7] | [2]; [4] | [2]; [11] | [2]; [6] | [2]; [10] | [2]; [7] | [3]; [4] | [3]; [7]
1: [1]; [4] | [1]; [11] | [2]; [9] | [2]; [13] | [2]; [12] | [3]; [8] | [3]; [9] | [3]; [10] | [3]; [12]

CN(C)S(=O)(=O)c1ccc(NC(=S)N2CCC(C(O)(c3ccccc3)c3ccccc3)CC2)cc1
1: [2]; [8] | [2]; [10] | [2]; [12] | [3]; [13] | [3]; [12]
0: [1]; [5] | [1]; [8] | [1]; [9] | [1]; [10] | [1]; [7] | [2]; [5] | [2]; [9] | [2]; [7] | [3]; [4] | [3]; [8] | [3]; [9] | [3]; [10] | [3]; [7]

O=C(NCc1ccccc1)c1ccc(S(=O)(=O)NCc2ccccc2)cc1
1: [1]; [11] | [1]; [9] | [1]; [10] | [1]; [12] | [2]; [5] | [2]; [9] | [2]; [7] | [3]; [11] | [3]; [6] | [3]; [10]
0: [1]; [4] | [1]; [8] | [1]; [7] | [2]; [8] | [2]; [10] | [2]; [12] | [3]; [4] | [3]; [8] | [3]; [9] | [3]; [13] | [3]; [7]

COc1cccc(OC)c1-c1cc(C(=O)NC2(C(=O)O)C3CC4CC(C3)CC2C4)nn1-c1ccc(C(=O)N(C)CCCN(C)C)cc1C(C)C (stereo not drawn)
1: [1]; [4] | [1]; [11] | [1]; [6] | [1]; [10] | [1]; [7] | [2]; [9] | [2]; [12] | [3]; [13] | [3]; [12]
0: [1]; [5] | [1]; [8] | [1]; [9] | [1]; [13] | [2]; [5] | [2]; [11] | [2]; [6] | [2]; [10] | [2]; [7] | [3]; [4] | [3]; [8] | [3]; [9] | [3]; [10] | [3]; [7]

CN([C@@H]1CCc2c(CC(=O)O)c3cc(S(C)(=O)=O)ccc3n2C1)S(=O)(=O)c1ccc(F)cc1 [CRTH2-negative-control]
0: [1]; [5] | [1]; [8] | [1]; [9] | [1]; [10] | [1]; [7] | [2]; [4] | [2]; [8] | [2]; [6] | [2]; [10] | [2]; [7] | [3]; [4] | [3]; [11] | [3]; [6] | [3]; [13] | [3]; [12]
1: [1]; [4] | [1]; [11] | [1]; [6] | [1]; [13] | [1]; [12] | [2]; [9] | [2]; [13] | [3]; [9] | [3]; [10] | [3]; [7]

O=C(c1ccc(F)cc1)N1CC(COc2ccc(Br)cc2)(C(=O)O)C1 [PF-04475866]
0: [1]; [4] | [1]; [11] | [1]; [6] | [1]; [10] | [1]; [12] | [2]; [5] | [2]; [10] | [3]; [4]
1: [1]; [8] | [1]; [9] | [1]; [7] | [2]; [4] | [2]; [8] | [2]; [9] | [2]; [13] | [2]; [7] | [3]; [13] | [3]; [7]

CS(=O)(=O)c1cccc(NC(=O)N(Cc2ccc(C(=O)Nc3nn[nH]n3)cc2)c2ccc(C3CCCCC3)cc2)c1
0: [1]; [5] | [1]; [11] | [1]; [6] | [1]; [13] | [1]; [12] | [2]; [4] | [3]; [4] | [3]; [8] | [3]; [9] | [3]; [10]
1: [1]; [4] | [1]; [8] | [1]; [9] | [1]; [10] | [1]; [7] | [2]; [11] | [2]; [6] | [2]; [10] | [2]; [7] | [3]; [7]

Cl.Cl.c1ccc([C@@H]2C[C@H]2NC2CCNCC2)cc1
1: [1]; [5] | [1]; [9] | [1]; [7] | [2]; [5] | [2]; [11] | [2]; [9] | [2]; [10] | [2]; [7] | [3]; [6] | [3]; [13] | [3]; [7]
0: [1]; [8] | [2]; [4] | [3]; [4]

C[C@@H]1CCN(C(=O)CC#N)C[C@@H]1N(C)c1ncnc2[nH]ccc12.O=C(O)CC(O)(CC(=O)O)C(=O)O [TOFACITINIB CITRATE]
0: [1]; [5] | [1]; [8] | [1]; [9] | [2]; [4] | [2]; [8] | [2]; [9] | [2]; [10] | [2]; [7] | [3]; [4]
1: [1]; [4] | [1]; [6] | [1]; [10] | [1]; [7] | [3]; [9] | [3]; [10] | [3]; [7]

CS(=O)(=O)NC[C@H]1CC[C@H](Nc2nc3c(s2)CCSc2ccccc2-3)CC1
0: [1]; [5] | [1]; [8] | [1]; [9] | [1]; [10] | [1]; [7] | [2]; [4] | [2]; [8] | [2]; [9] | [2]; [10] | [3]; [4] | [3]; [8] | [3]; [7]
1: [2]; [6] | [2]; [7] | [3]; [9] | [3]; [10]

CCc1cc(C(C)=O)c(O)cc1OCCCCCC(C)(C)c1nn[nH]n1 [LY-255283]
0: [1]; [4] | [1]; [11] | [1]; [9] | [1]; [10] | [1]; [7] | [2]; [4] | [2]; [11] | [2]; [6] | [2]; [13] | [2]; [12] | [3]; [4] | [3]; [8] | [3]; [9] | [3]; [10] | [3]; [7]
1: [1]; [8] | [1]; [12] | [2]; [9] | [2]; [10] | [2]; [7]

CN(c1ccnc(CNc2nc(Nc3ccc4c(c3)CC(=O)N4)ncc2C(F)(F)F)n1)S(C)(=O)=O [PF-00911705]
0: [1]; [8] | [1]; [9] | [1]; [10] | [1]; [7] | [2]; [5] | [2]; [8] | [2]; [9] | [2]; [10] | [2]; [7] | [3]; [4] | [3]; [11] | [3]; [6] | [3]; [10] | [3]; [12]
1: [3]; [9] | [3]; [7]
